Patent US11224614B2, “Compositions and methods for increasing iron intake in a mammal” (Solvotrin Therapeutics Limited, priority 2014, dated 2022)

Key:
[1] = In-vivo gastrointestinal tolerability (modified GSRS, Bristol Stool Chart), cross-over; parameters: species or system human; conditions: modified GSRS 0-3, Bristol Stool Chart; p=0.02 and p=0.03
Experimental: In a separate study using random, blinded, prospective allocation to beads prepared in accordance with the invention or FeSO4.7H2O in identical size 0 gelatin capsules, in-vivo gastrointesinal tolerability was assessed in a cross-over design. The test articles were taken in the morning after fasting for 10 hours with baseline and 2 hour fasting blood draws. After 2 hours fasting, food was taken as normal and over the following 24 hours, a modified Gastrointestinal Symptom Rating Scale (GSRS) was completed. This rates the following symptoms as 0=none, 1=mild, 2=moderate, 3=severe: • Abdominal pain/cramps • Nausea/vomiting • Abdominal bloating • Borborygmus (abdominal rumbling) • Flatulence/wind
In addition the products were taken on 3 consecutive days and the Bristol Stool Chart was used to assess constipation/diarrhoea. Positive score changes from baseline normality (=0) indicated constipation.

[2] = Simulated intestinal dissolution, pH 6.6 with pancreatin and bile acids; assay type: physicochemical; conditions: pH 6.6 over 1 hour, FIG. 5
Experimental: A solution of iron (II) sulfate in water (10 mM) was serially diluted using pH 1.8 KCl buffer. Aliquots (100 μl) of the diluted solutions were added to a 96-well plate containing 100 μl of 1,10-phenanthroline (5 mM). The plate was read at 490 nm on a multiwall plate reader in order to construct a calibration curve. Dissolution samples were diluted ten-fold typically at pH 1.6 into phenanthroline (5 mM) and the samples read rapidly under N2 blanketing.
A 50 mg quantity of beads was transferred to a vial containing 10M HCl (10 ml) and left overnight at room temperature. The resulting solution was shaken and then a 100 μl aliquot was transferred into 900 μl of 10M HCl. A 100 μl aliquot of the diluted solution was added to a 96-well plate containing 1M sodium thiocyanate (100 μl). Absorbance was measured at 450 nm on a multiwell plate reader. The concentration of the iron III was estimated by reference to a series of iron III standard solutions.
An accurately weighed sample (approximately 50 mg) of microbeads was transferred into a three necked vessel into which had been placed 15 ml pH 6.6 buffers (containing 0.1 M sodium bicarbonate, 10 mg/ml bile acid extract, 1.85 mg/ml pancreatin, adjust to pH 6.6 with 1M HCl) at 37° C. Generally, at 1, 15, 30, 45, 60 and occasionally at 90, 120 min time points, samples were taken for iron (II) and iron (III) measurement. […]

[3] = In-vivo efficacy: randomised double-blind cross-over, serum iron over 0-6 hours in fasting subjects; conditions: primary endpoint, p=0.017
Experimental: We evaluated the formulation in a randomised, double-blind, controlled with a 28 day cross-over to obtain a minimum of 6 paired evaluable healthy subjects with serum ferritin <100 ng/mL for comparison of the invention versus FeSO4.
In the analyses, comparisons between groups were conducted using paired sample t-tests for continuous variables and Wilcoxon's Rank Order tests for non-normal distributions. Shapiro-Wilks tests for normality were used to confirm assumptions that primary and secondary endpoints in the study population come from a normal distribution. If assumptions of normality were not possible, log-transformation was used or Wilcoxon's Rank Order tests were applied.
Subjects returned to the study site (within two weeks of Visit 1) for the first intervention day (Visit 2), after fasting since 10 pm the previous night. Subjects were pre-randomised into one of the two treatment groups with a washout period of four weeks between treatment phases: • Group 1: beads prepared in accordance with the invention, followed by FeSO4 • Group 2: FeSO4, followed by beads prepared in accordance with the invention
A blood sample was collected immediately after drinking the supplement and at 2 hours, 4 hours and 6 hours after dosing. […] Ferritin and haemoglobin were also assessed. […]

## ferrous sulfate [FeSO4]
[1]
  symptoms scores for abdominal pain/cramps, nausea, flatulence and constipation: Significantly higher symptoms scores
[2]
  iron II and total iron (ferrous and ferric) profile in dissolution: undergoes oxidation and precipitates as ferric hydroxides
[3]
  serum iron Trough to Peak Differential (TPD) over 0-6 hours, median: 9.7 µmol/L
